Results published in PubChem BioAssay AID248 (DTP/NCI, 2004).
Where “and” joins values, the source holds several entries; their conditions need not be identical. Equal values may be shown once. Toxic doses and inconclusive results are not listed.

System: L1210 leukemia ip in BDF1 mice, survival T/C
Assay: NCI In Vivo Anticancer Drug Screen. Data for tumor model L1210 Leukemia (intraperitoneal) in B6D2F1 (BDF1) mice
Conditions: endpoint: mean survival time, higher = longer survival
How it was run: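 Survival endpoint. Drug-treated group vs vehicle group, expressed as T divided by C. Tumor passaged by transplantation.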

[1] = dose: 100.0 mg/kg/injection, schedule: Q04DX003 (ip), vehicle: saline with Tween-80
[2] = dose: 200.0 mg/kg/injection, schedule: Q04DX003 (ip), vehicle: saline with Tween-80
[3] = dose: 25.0 mg/kg/injection, schedule: Q01DX009 (ip), vehicle: Klucel (hydroxypropylcellulose) (HPC)
[4] = dose: 50.0 mg/kg/injection, schedule: Q01DX009 (ip), vehicle: Klucel (hydroxypropylcellulose) (HPC)
[5] = dose: 50.0 mg/kg/injection, schedule: Q04DX003 (ip), vehicle: Klucel (hydroxypropylcellulose) (HPC)
[6] = dose: 100.0 mg/kg/injection, schedule: Q04DX003 (ip), vehicle: Klucel (hydroxypropylcellulose) (HPC)
[7] = dose: 100.0 mg/kg/injection, schedule: Q04DX002 (ip), vehicle: saline with Tween-80
[8] = dose: 200.0 mg/kg/injection, schedule: Q04DX002 (ip), vehicle: saline with Tween-80
[9] = dose: 400.0 mg/kg/injection, schedule: Q04DX002 (ip), vehicle: saline with Tween-80
[10] = dose: 100.0 mg/kg/injection, schedule: Q04DX003 (ip), vehicle: saline
[11] = dose: 200.0 mg/kg/injection, schedule: Q04DX003 (ip), vehicle: saline
[12] = dose: 400.0 mg/kg/injection, schedule: Q04DX003 (ip), vehicle: saline
[13] = dose: 100.0 mg/kg/injection, schedule: Q01DX009 (ip), vehicle: saline with Tween-80
[14] = dose: 200.0 mg/kg/injection, schedule: Q01DX009 (ip), vehicle: saline with Tween-80

In the case of `CCCCOc1ccc(S(=O)(=O)c2ccc(OCCCC)c([N+](=O)[O-])c2)cc1[N+](=O)[O-]`, the T/C (dose: 75.0 mg/kg/injection, schedule: Q04DX002 (ip), vehicle: gum acacia) is reported as 97 % of control, the T/C (dose: 150.0 mg/kg/injection, schedule: Q04DX002 (ip), vehicle: gum acacia) is reported as 97 % of control and the T/C (dose: 300.0 mg/kg/injection, schedule: Q04DX002 (ip), vehicle: gum acacia) is reported as 97 % of control.

For `O=C1OCC/C1=C\c1ccc2c(c1)OCO2`, the T/C [1] was 105 % of control, the T/C [2] was 101 % of control and the T/C (dose: 400.0 mg/kg/injection, schedule: Q04DX003 (ip), vehicle: saline with Tween-80) was 90 % of control.

For `Nc1nc(=S)c2[nH]c(N=Nc3ccc(S(=O)(=O)O)cc3)nc2[nH]1`, the T/C [3] was 100 % of control, the T/C [4] was 102 % of control and the T/C [5] was 114 % of control. For the same molecule, the T/C (dose: 100.0 mg/kg/injection, schedule: Q01DX009 (ip), vehicle: Klucel (hydroxypropylcellulose) (HPC)) was 102 % of control and the T/C [6] was 153 % of control.

For `COc1ccc(-c2c(C)nc(N)nc2OC)cc1`, the T/C [7] was 96 % of control, the T/C [8] was 100 % of control and the T/C [9] was 96 % of control.

For `CCNc1c([N+](=O)[O-])cc(S(=O)(=O)O)cc1[N+](=O)[O-]`, the T/C [10] was 116 % of control, the T/C [11] was 105 % of control and the T/C [12] was 95 % of control.

In the case of `Nc1ncnc2c1ncn2C1OC(COP(=O)(O)OP(=O)(O)OCC2OC([n+]3cccc(C=O)c3)C(O)C2O)C(O)C1O` (configuration not stated), the T/C (dose: 80.0 mg/kg/injection, schedule: Q01DX Z (ip), vehicle: saline) is reported as 95 % of control, the T/C (dose: 120.0 mg/kg/injection, schedule: Q01DX Z (ip), vehicle: saline) is reported as 90 % of control and the T/C (dose: 180.0 mg/kg/injection, schedule: Q01DX Z (ip), vehicle: saline) is reported as 97 % of control. The T/C (dose: 270.0 mg/kg/injection, schedule: Q01DX Z (ip), vehicle: saline) was 101 % of control.

For `CCCCCCCCCCCCCCCCS(=O)(=O)c1ccc(S(=O)(=O)F)cc1NC(=O)C(F)(F)F`, the T/C [13] was 87 % of control, the T/C [1] was 92 % of control and the T/C [14] was 97 % of control. For the same molecule, the T/C [2] was 93 % of control and the T/C (dose: 400.0 mg/kg/injection, schedule: Q01DX009 (ip), vehicle: saline with Tween-80) was 105 % of control.

In the case of `Sc1ccccc1Cl`, the T/C (dose: 12.5 mg/kg/injection, schedule: Q01DX009 (ip), vehicle: Klucel (hydroxypropylcellulose) (HPC)) is reported as 97 % of control, the T/C [3] is reported as 95 % of control and the T/C (dose: 25.0 mg/kg/injection, schedule: Q04DX003 (ip), vehicle: Klucel (hydroxypropylcellulose) (HPC)) is reported as 103 % of control. For the same molecule, the T/C [4] was 97 % of control, the T/C [5] was 103 % of control and the T/C [6] was 102 % of control.

With `O=[N+]([O-])c1cc([N+](=O)[O-])c2sc3ccccc3c2c1` the T/C (dose: 50.0 mg/kg/injection, schedule: Q04DX002 (ip), vehicle: saline with Tween-80) was 97 % of control, the T/C [7] was 104 % of control and 90 % of control and the T/C [8] was 87 % of control. For the same molecule, the T/C [9] was 108 % of control.

`CC(=O)OC1COC(n2cnc3c(=O)[nH]c(N)nc32)C(OC(C)=O)C1OC(C)=O` (configuration not stated) was tested, and the T/C (dose: 50.0 mg/kg/injection, schedule: Q01DX001 (ip), vehicle: saline) was 104 % of control, the T/C (dose: 100.0 mg/kg/injection, schedule: Q01DX001 (ip), vehicle: saline) was 104 % of control and the T/C (dose: 200.0 mg/kg/injection, schedule: Q01DX001 (ip), vehicle: saline) was 95 % of control. For the same molecule, the T/C (dose: 400.0 mg/kg/injection, schedule: Q01DX001 (ip), vehicle: saline) was 93 % of control.

`CC1(C)N=C(N)N=C(N)N1c1ccccc1` was tested, and the T/C (dose: 12.0 mg/kg/injection, schedule: Q01DX009 (ip), vehicle: saline) was 104 % of control, the T/C (dose: 12.0 mg/kg/injection, schedule: Q04DX003 (ip), vehicle: saline) was 97 % of control and the T/C (dose: 25.0 mg/kg/injection, schedule: Q01DX009 (ip), vehicle: saline) was 99 % of control. The T/C (dose: 25.0 mg/kg/injection, schedule: Q04DX003 (ip), vehicle: saline) was 101 % of control and the T/C (dose: 50.0 mg/kg/injection, schedule: Q01DX009 (ip), vehicle: saline) was 98 % of control.

In the case of `Cc1ncc(CO)c(CO)c1O`, the T/C [10] is reported as 101 % of control, the T/C [11] is reported as 100 % of control and the T/C [12] is reported as 96 % of control.

For `COc1ccc(Cl)cc1NC(=O)COc1cc(Cl)c(Cl)cc1Cl`, the T/C (dose: 50.0 mg/kg/injection, schedule: Q01DX009 (ip), vehicle: saline with Tween-80) was 101 % of control, the T/C [13] was 96 % of control and the T/C [14] was 104 % of control.

In the case of `COc1ccc(CN2CCCN(Cc3ccc(OC)cc3OC)C2c2ccc(N(CCCl)CCCl)cc2F)c(OC)c1`, the T/C (dose: 50.0 mg/kg/injection, schedule: Q01DX001 (ip), vehicle: carboxymethylcellulose (CMC)) is reported as 104 % of control, the T/C (dose: 100.0 mg/kg/injection, schedule: Q01DX001 (ip), vehicle: carboxymethylcellulose (CMC)) is reported as 98 % of control and the T/C (dose: 200.0 mg/kg/injection, schedule: Q01DX001 (ip), vehicle: carboxymethylcellulose (CMC)) is reported as 104 % of control. The T/C (dose: 400.0 mg/kg/injection, schedule: Q01DX001 (ip), vehicle: carboxymethylcellulose (CMC)) was 106 % of control.

For `[N-]=[N+]=N/C(=C\c1ccccc1)C(=O)c1ccccc1`, the T/C (dose: 100.0 mg/kg/injection, schedule: Q01DX001 (ip), vehicle: Klucel (hydroxypropylcellulose) (HPC)) was 94 % of control, the T/C (dose: 100.0 mg/kg/injection, schedule: Q04DX003 (ip), vehicle: other) was 100 % of control and the T/C (dose: 200.0 mg/kg/injection, schedule: Q01DX001 (ip), vehicle: Klucel (hydroxypropylcellulose) (HPC)) was 98 % of control. The T/C (dose: 200.0 mg/kg/injection, schedule: Q04DX003 (ip), vehicle: other) was 98 % of control, the T/C (dose: 400.0 mg/kg/injection, schedule: Q01DX001 (ip), vehicle: Klucel (hydroxypropylcellulose) (HPC)) was 94 % of control and the T/C (dose: 400.0 mg/kg/injection, schedule: Q04DX003 (ip), vehicle: other) was 91 % of control.

`COc1ccc2c3c(ccc2c1)C1=C(C(=O)O)CC(=O)C1(C)CC3` (configuration not stated) was tested, and the T/C (dose: 100.0 mg/kg/injection, schedule: Q01DX009 (sc), vehicle: steriod suspending solution) was 114 % of control, the T/C (dose: 100.0 mg/kg/injection, schedule: Q04DX003 (sc), vehicle: steriod suspending solution) was 117 % of control and the T/C (dose: 200.0 mg/kg/injection, schedule: Q01DX009 (sc), vehicle: steriod suspending solution) was 101 % of control. The T/C (dose: 200.0 mg/kg/injection, schedule: Q04DX003 (sc), vehicle: steriod suspending solution) was 97 % of control, the T/C (dose: 400.0 mg/kg/injection, schedule: Q01DX009 (sc), vehicle: steriod suspending solution) was 95 % of control and the T/C (dose: 400.0 mg/kg/injection, schedule: Q04DX003 (sc), vehicle: steriod suspending solution) was 101 % of control.
